According to patent US20210220331A1, “INHIBITORS OF IRES-MEDIATED PROTEIN SYNTHESIS” (The Regents of the University of California, priority 2016, published 2021):

How the values were obtained:
[1] = tested on: LN229, LN18, LN428 and SF763 GBM lines; assay: Cell-cycle phase distribution and Annexin V apoptosis in four GBM lines; format: cell-based
Procedure: Results are expressed as relative fold change in firefly (FF) luciferase activity and the mean and +S.D. are shown for three independent experiments. […] Data represent mean±S.D. of three independent experiments. […] Control cell were treated with DMSO vehicle. Data are means±S.D., n=3. […] Percent apoptotic cells as determined via Annexin V staining are also shown below each graph.

human cyclin D1 IRES = assay: Dicistronic IRES mRNA reporter assay (firefly luciferase), cyclin D1 IRES; format: cell-based; conditions: for Cyclin D1 (decrease): fold decrease in PP242-induced cyclin D1 IRES activity: LN229, relative to values obtained with parent compound C11
Procedure: (§1) Western blot and quantitative RT-PCR analyses were performed as previously described (19). For Western blotting, cells or tissues were lysed in RIPA (lysis) buffer containing protease inhibitor cocktail and phosSTOP phosphatase inhibitor cocktail (Roche) and extracts resolved by SDSPAGE. Proteins were transferred to PVDF membranes and incubated with the indicated antibodies. For IRES reporter assays, the indicated mRNA reporters were cotransfected into cells with pSVβ-galactosidase to normalize for transfection efficiency as described previously (16). Cells were harvested 18 h following transfection and Renilla, firefly and β-galactosidase activities determined using the Dual-Glo Luciferase and β-galactosidase assay systems (Promega).
(B) Schematic diagrams of the dicistronic constructs used in this study. Constructs used are pRF, pRCD1F, which contains the human cyclin D1 IRES, pRmycF, containing the human c-myc IRES, pRp27F, containing the human p27Kip1 IRES and pRECMVF, containing the IRES from encephalomyocarditis virus. (C) Relative Renilla and firefly luciferase activities obtained from LN229 GBM cells transfected with the indicated constructs in the absence or presence of the inhibitor C11. The mean and +SD are shown for three independent experiments. […] (D) RNA-pull down assays utilizing biotinylated cyclin D1 or c-MYC IRES RNAs. Cytoplasmic extracts of LN229 cells treated with C11 (50 nM) as indicated were incubated with biotinylated cyclin D1 or c-MYC IRES RNAs and precipitated with streptavidin-Sepharose beads. Input and bound fractions were analyzed by immunoblotting using hnRNP A1 antibodies. […] RT-PCR measurements were performed in quadruplicate and the mean and +S.D. are shown. […] (F) Top panel, LN229 cells were treated with C11 as indicated and RT-PCR splicing analysis for Max exon 5 performed as described in the Experimental Methods section. Middle panel, LN229 cells treated with C11 (50 nM) as indicated, were lysed and immunoprecipitated using either eIF-4E or control IgG antibodies. Bound CCND1 or c-MYC RNAs were detected via RT-PCR. The mean and +S.D. are shown for three independent experiments. Bottom panel, cyclin D1 and c-MYC protein levels from the indicated GBM cell lines in the absence or presence of C11 at 24 h following treatment. C11 specifically blocks c-Myc IRES-mediated translation initiation by disrupting the ITAF hnRNP A1-IRES interaction.
Several dicistronic IRES mRNA reporter constructs were utilized, shown in FIG. 1B, in which the indicated IRES sequences were inserted within the intercistronic region. LN229 cells transiently transfected with these constructs were assayed for Renilla and firefly luciferase activities, which are readouts of cap-dependent and IRES-mediated translation initiation, respectively (16). […]

[2] = tested on: LN229, LN18, LN428 and SF763 GBM lines; assay: Growth inhibition of GBM cell lines (XTT); format: cell-based
Procedure: Results are expressed as relative fold change in firefly (FF) luciferase activity and the mean and +S.D. are shown for three independent experiments. (B) Growth inhibition of GBM cell lines following 48 h culture in C11. Data represent mean±S.D. of three independent experiments. […] Control cell were treated with DMSO vehicle. Data are means±S.D., n=3. […] Percent apoptotic cells as determined via Annexin V staining are also shown below each graph. One of three experiments with similar results is shown.

LN229 cells = assay: Combination analysis with PP242 (XTT, combination index) in LN229; format: cell-based; conditions: combination of PP242 and analog, CI=1.0 dose additive, CI<0.5 synergy, CI<0.3 strong synergy
From the text: Fold decrease in either PP242-induced cyclin D1 or c-MYC IRES activity in LN229 relative to values obtained with the parent compound C11 are shown for each analog. […] CI=1.0 (dose additive), CI<0.5 (synergy), CI<0.3 (strong synergy).
The structure-activity relationships (SAR) for C11 and related compounds were investigated by synthesizing and testing the analogs listed in Table 1. […] The degree of apoptotic cell death following co-treatment with analog and PP242 was also monitored.

[3] = tested on: IRES from encephalomyocarditis virus; assay: Dicistronic IRES mRNA reporter assay, ECMV IRES; format: cell-based; conditions: LN229 cells
Procedure: as §1
(B) Schematic diagrams of the dicistronic constructs used in this study. […] Input and bound fractions were analyzed by immunoblotting using hnRNP A1 antibodies. […] Bound CCND1 or c-MYC RNAs were detected via RT-PCR. […]
Several dicistronic IRES mRNA reporter constructs were utilized, shown in FIG. 1B, in which the indicated IRES sequences were inserted within the intercistronic region. LN229 cells transiently transfected with these constructs were assayed for Renilla and firefly luciferase activities, which are readouts of cap-dependent and IRES-mediated translation initiation, respectively (16).

[4] = tested on: cyclin D1, c-MYC and actin mRNAs; assay: Polysome analysis in LN229 cells; format: cell-based
Delta Max splicing = assay: Max exon 5 alternative splicing analysis (RT-PCR); format: cell-based; conditions: U87 cells stably expressing EGFRvIII
Procedure: Max exon 5 alternative splicing analysis was performed as described (22). Alternative splicing was assayed using quantitative RT-PCR using primers designed to constitutive exons flanking alternative exons. Primers were: Max (85F) 5′-[…]-3′; MAX(85R) 5′-[…]-3′. Reverse primers were 32P end-labeled and PCR reactions were amplified for 22 cycles and subsequently resolved by denaturing PAGE and imaged.
(B) Schematic diagrams of the dicistronic constructs used in this study. Constructs used are pRF, pRCD1F, which contains the human cyclin D1 IRES, pRmycF, containing the human c-myc IRES, pRp27F, containing the human p27Kip1 IRES and pRECMVF, containing the IRES from encephalomyocarditis virus. (C) Relative Renilla and firefly luciferase activities obtained from LN229 GBM cells transfected with the indicated constructs in the absence or presence of the inhibitor C11. The mean and +SD are shown for three independent experiments. […] (D) RNA-pull down assays utilizing biotinylated cyclin D1 or c-MYC IRES RNAs. Cytoplasmic extracts of LN229 cells treated with C11 (50 nM) as indicated were incubated with biotinylated cyclin D1 or c-MYC IRES RNAs and precipitated with streptavidin-Sepharose beads. Input and bound fractions were analyzed by immunoblotting using hnRNP A1 antibodies. […] Bound CCND1 or c-MYC RNAs were detected via RT-PCR. […]

[5] = tested on: subcutaneous LN229 tumors
Procedure: TUNEL staining of tumor sections was performed using the TACSXL DAB In Situ Apoptosis Detection kit (Trevigen) according to the manufacturer's instructions (19). […] Xenograft Studies-Xenografts of LN229 cells were performed in female C.B.-17-scid (Taconic) mice as previously described (14). Tumors were harvested at autopsy for Western blot analysis. Sections of paraffin-embedded tumors on slides were processed for immunohistochemistry as previously described (14,19). Statistical analysis was done with Student's t test and ANOVA models using Systat 13 (Systat Software, Chicago, Ill.). P values of less the 0.05 were considered significant.
Left panel, apoptotic cells were identified by TUNEL assays of sections prepared from harvested tumors at day 12 following initiation of treatment regimens. Data are expressed as the number of positive apoptotic bodies divided by high power field (hpf; 10-12 hpf/tumor). Values are means+S.D., *, P<0.05.

[6] = combination PP242 50 mg/kg/d + IRES-J007 20 mg/kg/d

Structure (SMILES)	percentage of cells undergoing apoptosis ([1]; combined with PP242, four GBM lines)	G1 arrest ([1]; cotreatment with PP242, four GBM lines)	Cyclin D1 (decrease): fold decrease in PP242-induced cyclin D1 IRES activity (human cyclin D1 IRES) [fold]	mTOR inhibitor-induced cyclin D1 IRES activity (human cyclin D1 IRES; LN229 cells, cotreatment with rapamycin or PP242)	cyclin D1 IRES activity (human cyclin D1 IRES; LN229 cells, inhibitor alone)	CI (combination index) at ED50 ratio of 1:100 ([2]; C11 at 10 and 100 nM with PP242, 48 h, LN229, LN18, LN428 and SF763)	inhibition of cell growth ([2]; inhibitor alone, concentrations up to 10 μM, 48 h, several GBM lines)	CI ED50, 1:100 (combination index) (LN229 cells)	IRES-mediated initiation from ECMV IRES [3]	actin mRNA distribution ([4]; 50 nM)	polysome distribution of cyclin D1 and c-MYC mRNA ([4]; 50 nM)	cyclin D1 or c-MYC steady-state mRNA levels ([4]; total monosomal/nonribosomal plus polysomal mRNA)	Delta Max splicing (Delta Max splicing)	overall survival compared to either monotherapy [5, 6]	tumor growth delay [5, 6] [days]	inhibition of tumor growth at end of dosing period ([5]; combination PP242 50 mg/kg/d + IRES-J007 20 mg/kg/d, ten consecutive days) [%]	cyclin D1 and c-MYC protein levels in tumors ([5]; combination therapy)	TUNEL staining of tumor sections (apoptosis) ([5]; combination therapy, tumors harvested at day 12)	tumor growth vs double vehicle controls ([5]; monotherapy IRES-J007 20 mg/kg/d, ten consecutive days)
COc1ccc(CN2C(=O)C(Cl)=C(Cl)C2=O)c(OC)c1 [Compound C11, reference compound]	further potentiated the percentage of cells undergoing apoptosis	markedly stimulated G1 arrest	1.0	significantly inhibited	significantly inhibited	0.5	No significant inhibition of cell growth	0.50	did not affect	unaffected	significant shift in both cyclin D1 and c-MYC mRNA to monosomal/nonribosomal fractions	did not appear to alter	did not alter	–	–	–	–	–	–
COc1ccc(CN2C(=O)c3ccccc3C2=O)c(OC)c1 [IRES-J007, 2-((2,4-Dimethoxyphenyl)methyl)isoindoline-1,3-dione]	–	–	4.97 ± 0.13	–	–	–	–	0.42	–	–	–	–	–	significantly extended	20.5	93	Marked reductions	significant staining	did not differ significantly
